A short description of assay [1]: Induction of neuronal differentiation in rat PC-12 cells assessed as neurite growth by measuring fold change at 10 uM incubated for 48 hrs in presence of NGF by microscopic analysis relative to NGF. The format is functional.
In assay [2] the test system is PC-12. In words: Induction of neuronal differentiation in rat PC-12 cells at 10 uM incubated for 48 hrs by microscopic analysis. Format: functional, cell-based.
Assay [3] relates to PC-12. In words: Induction of neuronal differentiation in rat PC-12 cells assessed as increase in neurite bearing cells incubated for 48 hrs in presence of NGF by microscopic analysis. Format: functional, cell-based. The conditions noted are these: dose 1-10 µM.
Assay [4] in a line: Induction of neuronal differentiation in rat PC-12 cells assessed as neurite growth at 10 uM incubated for 48 hrs in presence of NGF by microscopic analysis (reference value: 8.39 +/- 0.03 %). The format is functional.
In assay [5] the test system is PC-12. In words: Neuroprotective activity against 6-OHDA-induced neurotoxicity in rat PC-12 cells at 5 to 40 uM incubated for 24 hrs by MTT assay. The format is functional, cell-based. The note with it: dose 5-40 µM.
In assay [6] the test system is BV-2. The assay is described as follows: Anti-inflammatory activity against mouse BV-2 cells assessed as inhibition of LPS-induced NO production pretreated for 3 hrs followed by LPS addition measured after 24 hrs by Griess reagent based assay. The format is functional, cell-based.
Assay [7] deals with PC-12. In words: Neuroprotective activity against H2O2-induced neurotoxicity in rat PC-12 cells at 5 to 40 uM incubated for 24 hrs by MTT assay. The format is functional, cell-based. The conditions noted are these: dose 5-40 µM. A general note: Formazan colour is commonly taken as a measure of viable cells.
In assay [8] the test system is PC-12. The assay is described as follows: Neuroprotective activity against H2O2-induced neurotoxicity in rat PC-12 cells incubated for 24 hrs by MTT assay. The note with it: dose 5-40 µM. The format is functional, cell-based.
In assay [9] the test system is BV-2. In words: Anti-inflammatory activity against mouse BV-2 cells assessed as inhibition of LPS-induced NF-kappaB p65 nuclear entry at 3 to 30 uM pretreated for 3 hrs followed by LPS addition measured after 24 hrs by Western blot analysis. The conditions noted are these: dose 3-30 µM, time 27.0 hrs. The format is functional, cell-based. For orientation: A western blot detects proteins with antibodies after separation by electrophoresis.

For assay [10], the system named is BV-2. In words: Anti-inflammatory activity against mouse BV-2 cells assessed as inhibition of LPS-induced JNK activation at 30 uM pretreated for 3 hrs followed by LPS addition measured after 24 hrs. Format: functional, cell-based. The conditions noted are these: time 27.0 hrs.
Assay [11] deals with Caenorhabditis elegans. In words: Antialzheimer activity in transgenic Caenorhabditis elegans CL4176 expressing human amyloid-beta peptide assessed as decrease in paralysis rate at 25 uM incubated for 14 hrs. The format is functional, organism-based.
In assay [12] the test system is BV-2. The assay is described as follows: Anti-inflammatory activity against mouse BV-2 cells assessed as reduction in LPS-induced iNOS expression pretreated for 3 hrs followed by LPS addition measured after 24 hrs by Western blot analysis. Format: functional, cell-based. The note with it: dose 3-30 µM, time 27.0 hrs.
The test system of assay [13] is BV-2. The assay is described as follows: Anti-inflammatory activity against mouse BV-2 cells assessed as reduction in LPS-induced COX-2 expression pretreated for 3 hrs followed by LPS addition measured after 24 hrs by Western blot analysis. The format is functional, cell-based. The note with it: dose 3-30 µM, time 27.0 hrs.
In assay [14] the test system is Caenorhabditis elegans. In words: Antioxidant activity in Caenorhabditis elegans CL4176 expressing human amyloid-beta peptide assessed as decrease in ROS level at 50 uM incubated for 7 days by H2DCF-DA probe based analysis relative to control. Format: functional. Details: scale not given: the % may be the effect or the level left. The conditions noted are these: time 7 day.

The test system of assay [15] is BV-2. In words: Anti-inflammatory activity against mouse BV-2 cells assessed as reduction in LPS-induced COX-2 expression pretreated for 3 hrs followed by LPS addition measured after 24 hrs by immunofluorescence based analysis. Format: functional, cell-based. The conditions noted are these: dose 3-30 µM.
For assay [16], the system named is BV-2. In words: Anti-inflammatory activity against mouse BV-2 cells assessed as inhibition of LPS-induced p-JNK activation at 30 uM pretreated for 3 hrs followed by LPS addition measured after 24 hrs. The conditions noted are these: time 27.0 hrs. The format is functional, cell-based.
For assay [17], the system named is Caenorhabditis elegans. In words: Antialzheimer activity in transgenic Caenorhabditis elegans CL4176 expressing human amyloid-beta peptide assessed as decrease in paralysis rate at 12.5 uM incubated for 14 hrs relative to control. Format: functional. Details: scale not given: the % may be the effect or the level left.
Assay [18] has as its system BV-2. The assay is described as follows: Anti-inflammatory activity against mouse BV-2 cells assessed as inhibition of LPS-induced NF-kappaB p65 phosphorylation pretreated for 3 hrs followed by LPS addition measured after 24 hrs by Western blot analysis. The note with it: dose 3-30 µM, time 27.0 hrs. Format: functional, cell-based.
In assay [19] the test system is PC-12. In words: Neuroprotective activity against H2O2-induced neurotoxicity in rat PC-12 cells assessed as increase in HO-1 level at 2.5 to 40 uM by Western blot analysis. Format: functional, cell-based. The note with it: dose 2.5-40 µM.
Assay [20] deals with PC-12. The assay is described as follows: Neuroprotective activity against H2O2-induced neurotoxicity in rat PC-12 cells assessed as increase in catalase level at 2.5 to 40 uM by Western blot analysis. The format is functional, cell-based. The conditions noted are these: dose 2.5-40 µM.

The source made the active and inactive calls. The calls are words filed in the database; no cut-off is given here.

One may read the IC50 as the concentration at which inhibition is half-maximal.

`COC(C)(C)C/C=C/C(C)=C/CC[C@@]1(C)C=Cc2c(O)cc(C)cc2O1`: the “fold change (FC)” value in assay [1] is listed as around 3. Also, the result in the assay on PC-12 [2] was Active. Also, the Activity result was “Dose-dependent-effect” in the assay on PC-12 [3] and 22.93% in assay [4].
As to `Cc1cc(O)c2c(c1)O[C@@]1(C)CC[C@@H](C(C)(C)O)[C@@H]2C1`, the Activity entry in the assay with PC-12 [5] was “Active; Capable Of Rescuing Cell Injury To Greater Extent”.
Regarding `C=C(C)[C@H](O)CC[C@@]1(C)[C@@H]2CC[C@]3(C)Oc4cc(C)cc(O)c4[C@H]1[C@H]23`, the IC50 in the assay on BV-2 [6] is 22.1 µM. The Activity entry in the assay with PC-12 [7] and in the assay on PC-12 [5] was “Active; Activity Was Comparable To That Of Ngf” in each case.
For `CC(C)=CC[C@H](O)/C(C)=C/CC[C@@]1(C)C=Cc2c(O)cc(C)cc2O1`, the outcome in the assay on PC-12 [2] was Active. The IC50 in the assay on BV-2 [6] worked out at 19.9 µM. Besides, the Activity result in the assay with PC-12 [3] was “Dose-dependent-effect”.
Regarding `C=C(C)[C@@H]1CC[C@]2(C)Oc3cc(C)cc(O)c3C[C@H]12`, the IC50 in the assay on BV-2 [6] was above 30 µM. Further, the Activity entry in the assay on PC-12 [7] and in the assay on PC-12 [5] was “Active; Activity Was Comparable To That Of Ngf” throughout.
For the compound `C/C(=C\CC[C@@]1(C)C=Cc2c(O)cc(C)cc2O1)CC(=O)CC(C)C`, in the assay with BV-2 [6], the IC50 turned out to be 21.3 µM.
Take `CC(C)=CC(=O)[C@@H]1[C@H]2c3c(O)cc(C)cc3O[C@@]3(C)CCC[C@]1(C)[C@@H]23`: the Activity entry in the assay on PC-12 [8] was “Dose-dependent-effect; Activity Was Comparable To That Of Ngf”; in the assay on Caenorhabditis elegans [11], “Active; Activity Was Comparable With Quercetin At 50 Um”; with BV-2 [12], “Dose-dependent-effect; Exhibited More Potency Than Quercetin”; in the assay on BV-2 [13], “Dose-dependent-effect; Exhibited More Potency Than Quercetin”; with Caenorhabditis elegans [14] it was “>=18.7%”; with BV-2 [15], “Dose-dependent-effect”. Moreover, the Activity entry in the assay with PC-12 [5] is listed as “Active; Activity Was Comparable To That Of Ngf”. Further, the inhibition entry with BV-2 [9] is “Active; Exhibited Mild Inhibition”; with BV-2 [10] it was “Active; Activity Was Comparable To That Of Quercetin”. Further, the IC50 in the assay with BV-2 [6] is 17.5 µM.
Take `Cc1cc(O)c2c(c1)O[C@@]1(C)CC[C@H]3O[C@@H]2[C@@H]1C3(C)C`: in [1], the “fold change (FC)” value is around 3. Moreover, in the assay on PC-12 [2], the result was Active. Besides, the IC50 with BV-2 [6] is above 30 µM. Further, the Activity entry is “Dose-dependent-effect” with PC-12 [3], “Active; Activity Was Comparable To That Of Ngf” with PC-12 [7], 21.85% in [4] and “Active; Activity Was Comparable To That Of Ngf” with PC-12 [5].
As to `C/C(=C\Cc1c(O)cc(C)cc1O)CC/C=C(\C)CC(=O)CC(C)C`, the IC50 in the assay on BV-2 [6] is 20 µM.
On to `C/C(=C\CC/C(C)=C/CC[C@@]1(C)C=Cc2c(O)cc(C)cc2O1)CO`, for which the inhibition entry in the assay with BV-2 [16] was “Active; Exhibited Mild Inhibition”. For the same compound, the IC50 with BV-2 [6] was 15.8 µM. In addition, the Activity entry in the assay on BV-2 [12] and in the assay with BV-2 [13] was “Dose-dependent-effect” each time.
As for `C=C(C)[C@@H](O)CC/C(C)=C/CC[C@@]1(C)C=Cc2c(O)cc(C)cc2O1`, the 50% inhibitory concentration (IC50) in the assay with BV-2 [6] is 25.2 µM.
For `Cc1cc(O)c2c(c1)O[C@@]1(C)CCC[C@@]3(C)[C@H](C(=O)CC(C)C)[C@@H]2[C@H]31`, the outcome in the assay on PC-12 [2] and in the assay on PC-12 [7] was Active. Moreover, the IC50 in the assay on BV-2 [6] turned out to be 28.2 µM. The results for the Activity result in the assay on PC-12 [3] and in the assay on PC-12 [5] were “Dose-dependent-effect” and “Active; Capable Of Rescuing Cell Injury To Greater Extent”, respectively.
For the compound `C=C(C)[C@@H](O)CC[C@@]1(C)[C@@H]2CC[C@]3(C)Oc4cc(C)cc(O)c4[C@H]1[C@H]23`, the Activity result with PC-12 [5] is on record as “Active; Capable Of Rescuing Cell Injury To Greater Extent”.
In the case of `CC(C)=CC(=O)C[C@]1(C)Oc2cc(C)cc3c2[C@H]2C[C@](C)(CC[C@H]21)O3`, the IC50 in the assay with BV-2 [6] came to 15.7 µM. Moreover, the figures for the inhibition result in the assay on BV-2 [10] and in the assay with BV-2 [18] were “Active; Activity Was Comparable To That Of Quercetin” and “Dose-dependent-effect”, respectively. In addition, the Activity is around 20% with Caenorhabditis elegans [17]; “Active; Exhibited More Activity Than That Of Positive Group” in the assay with PC-12 [19]; “Active; Exhibited More Activity Than That Of Positive Group” in the assay on PC-12 [20]; “Active; Activity Was Comparable To That Of Ngf” with PC-12 [7]; “>=15.2%” in the assay on Caenorhabditis elegans [14]; “Active; Activity Was Comparable To That Of Ngf” with PC-12 [5]. For the same compound, the outcome in the assay on BV-2 [12] and with BV-2 [13] was Active.
As for `O=c1c(O)c(-c2ccc(O)c(O)c2)oc2cc(O)cc(O)c12` [QUERCETIN], the IC50 with BV-2 [6] came to 11.8 µM.
Regarding `COC(C)(C)CC(=O)[C@@H]1[C@H]2c3c(O)cc(C)cc3O[C@@]3(C)CCC[C@]1(C)[C@@H]23`, the outcome in the assay with PC-12 [2] was Active. Moreover, the Activity result with PC-12 [3] is “Dose-dependent-effect”; with PC-12 [7] it was “Active; Activity Was Comparable To That Of Ngf”; in the assay with PC-12 [5] it was “Active; Activity Was Comparable To That Of Ngf”.
`C/C(=C/CC/C(C)=C/CC[C@@]1(C)C=Cc2c(O)cc(C)cc2O1)CO`: the half-inhibitory concentration (IC50) with BV-2 [6] was 11.3 µM.
Consider `CC(C)=CCC/C(C)=C/CC/C(C)=C/Cc1c(O)cc(C)cc1O` [GRIFOLIN], for which, in the assay on BV-2 [6], the IC50 is 18.9 µM. Besides, the result in the assay on PC-12 [19] and in the assay on PC-12 [20] was Active.

The values above are taken from ChEMBL document CHEMBL6078721, “Structurally diverse chromane meroterpenoids from Rhododendron capitatum with multifunctional neuroprotective effects” (Eur J Med Chem, 2025).
